Experimental data: US20140196172A1, “Organelle Targeting Nanocarriers” (Her Majesty the Queen in Right of Canada, as Repre sented …, priority 2011, published 2014)

Experiments:
[1] = tested on: mitochondria of triticale mesophyll protoplasts; assay: Protoplast transformation with gfp reporter, confocal microscopy; type: cell-based; conditions: pWMaadA16GFP plasmid, 24 h
Method: (§1) The ten non-labelled oTPs listed in Tables 3 and 4 were tested for their capability to deliver biologically active DNA to chloroplasts or mitochondria using an oTP-GFP reporter construct transfection assay. oTPs are mixed with a double stranded (ds) DNA construct encoding Aequorea victoria green fluorescent protein (GFP) to form a complex. The plasmid-peptide nanocomplexes formed are incubated with triticale mesophyll protoplasts, microspores, or MDCK, Caco-2, F1112 or MG cells. Detection of a fluorescent signal by confocal microscopy and/or photometric cell imaging would indicate that the dsDNA had been transported into organelles and that transient expression of GFP had occurred. In addition, gene expression can be measured using quantitative real-time PCR to determine gfp mRNA abundance.
Wheat mitochondrial aadA16GFP reporter plasmid (pWMaadA16GFP, FIG. 11) is a 4587 base pair wheat specific mitochondrial transformation vector, which targets insertions into the fourth repeat region between the trnfM and rm18 gene cluster which is repeated three times in the Triticum aestivum mitochondrial genome. The insertion site is in the Triticum aestivum mitochondrial genome at nucleotides 300805-300878 and 300880-302834 (GenBank accession No. AP008982.1). A multiple cloning site is introduced following the tmfM target insertion sequence. […]

Caco-2 cells = assay: Caco-2 cell transformation with gfp reporter, photometric cell imaging; type: cell-based, human; conditions: for Fluorescence observed in cells upon transfection / Expression of GFP in mitochondria: Caco-2, mitochondrial gfp-reporter construct; for Expression of GFP in mitochondria: photometric cell imaging; for gfp expression, Photometric Cell Imaging (average counts/sec) Caco-2: pWMaadA16GFP 5 μg + peptide 500 μg, measured at 40 h
Method: (§2) Uptake of labeled peptides by cells is quantified using a photometric detector/cell-imaging system (PTI). An excitation scan is run to determine if uptake has occurred as indicated by peaks at the appropriate wavelengths and if the amount changes in a dose-dependent manner compared to unlabeled cells. A time-based scan is then performed at the optimal excitation and emission wavelength to quantify total uptake, using about 20 cells/view/replicate.
as §1
(§3) Wheat mitochondrial aadA16GFP reporter plasmid (pWMaadA16GFP, FIG. 11) is a 4587 base pair wheat specific mitochondrial transformation vector, which targets insertions into the fourth repeat region between the trnfM and rm18 gene cluster which is repeated three times in the Triticum aestivum mitochondrial genome. The insertion site is in the Triticum aestivum mitochondrial genome at nucleotides 300805-300878 and 300880-302834 (GenBank accession No. AP008982.1). A multiple cloning site is introduced following the tmfM target insertion sequence. The selection marker gene is an organelle codon specific aad-gfp fusion gene, which facilitates a dual selection method of spectinomycin resistance through an aadA derivative and visual detection by GFP fluorescence (GenBank accession No. ABX39486; Khan and Maliga, Nat. Biotechnol. (1999 September) 17(9): 910-5). The selection marker gene is driven by the Triticum aestivum mitochondrial atpA gene promoter (GenBank accession No. X54387.1). The aad-gfp fusion gene is terminated with the TpsbA terminator sequence derived from the Triticum aestivum mitochondrial genome at nucleotides 62871-62565 (GenBank accession No. AP008982.1).
(§4) The dsDNA construct (pWMaadA16GFP. 100 μl of the stock solution, 5 μg) is combined with mTP1 (SEQ ID NO: 1) or mTP4 (SEQ ID NO: 4) (100 μl of the unlabelled stock, 500 μg) and incubated for 15 minutes at 37° C. An 800 μl aliquot of DMEM is added to the mixture and 100 μl of this mixture is then added to each cell monolayer (prepared as described in Example 2) that has 500 μl complete media. The cells are incubated at 37° C. in a humidified atmosphere containing 5% CO2 for 24 h to 72 hr. The uptake and expression of the GFP reporter is measured at 40 h using a photometric detector/cell-imaging system (PTI) as described in Example 2. The cells are also imaged using confocal microscopy as described in Example 2 using MitoTracker® Orange staining to visualize mitochondria.

MG cells = assay: MG cell transformation with gfp reporter, photometric cell imaging; type: cell-based, bovine; conditions: for Fluorescence observed in cells upon transfection / Expression of GFP in mitochondria: MG, mitochondrial gfp-reporter construct; for Expression of GFP in mitochondria: photometric cell imaging; for gfp expression, Photometric Cell Imaging (average counts/sec) MG: pWMaadA16GFP 5 μg + peptide 500 μg, measured at 40 h
Method: as §2, §1, §3, §4

F1112 cells = assay: F1112 cell transformation with gfp reporter, photometric cell imaging; type: cell-based, bovine; conditions: for Fluorescence observed in cells upon transfection / Expression of GFP in mitochondria: F1112, mitochondrial gfp-reporter construct; for Expression of GFP in mitochondria: photometric cell imaging; for gfp expression, Photometric Cell Imaging (average counts/sec) F1112: pWMaadA16GFP 5 μg + peptide 500 μg, measured at 40 h
Method: as §2, §1, §3, §4

Row | Sequence | Transfection of mitochondria (GFP fluorescence) [1] | Fluorescence observed in cells upon transfection (Caco-2 cells) | Expression of GFP in mitochondria (Caco-2 cells) | gfp expression, Photometric Cell Imaging (average counts/sec) Caco-2 (Caco-2 cells) [counts/sec] | Fluorescence observed in cells upon transfection (MG cells) | Expression of GFP in mitochondria (MG cells) | gfp expression, Photometric Cell Imaging (average counts/sec) MG (MG cells) [counts/sec] | Fluorescence observed in cells upon transfection (F1112 cells) | Expression of GFP in mitochondria (F1112 cells) | gfp expression, Photometric Cell Imaging (average counts/sec) F1112 (F1112 cells) [counts/sec]
1 | MAAWMRSLFSPLKKLWIRMH (Zea mays) [mTP2] | can mediate the transfection of mitochondria |  |  |  |  |  |  |  |  | 
2 | MFSYLPRYPLRAASARALVRATRPSYRSALLRYQ (listed as Triticum aestivum) [mTP1] |  | fluorescence was observed in all cells | detected | 2000000 | fluorescence was observed in all cells | detected | 1900000 | fluorescence was observed in all cells | detected | 1900000
3 | MWWRRSRTNSLRYT (listed as Arabidopsis thaliana) [mTP4] | can mediate the transfection of mitochondria | no fluorescence was observed | detected | 570000 | no fluorescence was observed | detected | 650000 | no fluorescence was observed | detected | 650000
